From PubChem BioAssay AID328 (DTP/NCI, 2004)
“And” between values parts separate entries of the source, which are not always exact repeats. Identical values can stand only once. Inconclusive results and toxic doses are left out.

System: BDF1 mice, P388 leukemia ip, median survival T/C
Assay: NCI In Vivo Anticancer Drug Screen. Data for tumor model P388 Leukemia (intraperitoneal) in B6D2F1 (BDF1) mice
Conditions: endpoint: median survival time, higher = longer survival
Outline: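 Mice carrying the transplantable tumour receive compound or vehicle. Survival is followed in each arm, and the treated measure is divided by the vehicle measure.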

[1] = dose: 100.0 mg/kg/injection, schedule: Q04DX003 (ip), vehicle: saline
[2] = dose: 200.0 mg/kg/injection, schedule: Q04DX003 (ip), vehicle: saline
[3] = dose: 50.0 mg/kg/injection, schedule: Q01DX009 (ip), vehicle: saline with Tween-80
[4] = dose: 100.0 mg/kg/injection, schedule: Q01DX009 (ip), vehicle: saline with Tween-80
[5] = dose: 200.0 mg/kg/injection, schedule: Q01DX009 (ip), vehicle: saline with Tween-80
[6] = dose: 100.0 mg/kg/injection, schedule: Q04DX003 (ip), vehicle: saline with Tween-80
[7] = dose: 200.0 mg/kg/injection, schedule: Q04DX003 (ip), vehicle: saline with Tween-80
[8] = dose: 400.0 mg/kg/injection, schedule: Q04DX003 (ip), vehicle: saline with Tween-80
[9] = dose: 50.0 mg/kg/injection, schedule: Q04DX003 (ip), vehicle: saline

CC1(C)OCC2OC3(C(=O)O)OC(C)(C)OC3C2O1 (stereo not given)
T/C (dose: 25.0 mg/kg/injection, schedule: Q01DX009 (ip), vehicle: water): 100 % of control
T/C (dose: 50.0 mg/kg/injection, schedule: Q01DX009 (ip), vehicle: water): 96 % of control
T/C (dose: 100.0 mg/kg/injection, schedule: Q01DX009 (ip), vehicle: water): 101 % of control
T/C (dose: 200.0 mg/kg/injection, schedule: Q01DX009 (ip), vehicle: water): 99 % of control
T/C (dose: 400.0 mg/kg/injection, schedule: Q01DX009 (ip), vehicle: water): 101 % of control

ClCCOCCOc1ccc(C2CCCCC2)cc1
T/C [1]: 100 % of control
T/C [2]: 100 % of control
T/C (dose: 400.0 mg/kg/injection, schedule: Q04DX003 (ip), vehicle: saline): 100 % of control

c1ccc2c(c1)CCc1cc3c(nc1-2)-c1ccccc1CC3
T/C (dose: 100.0 mg/kg/injection, schedule: Q04DX003 (ip), vehicle: Klucel (hydroxypropylcellulose) (HPC)): 112 % of control
T/C (dose: 400.0 mg/kg/injection, schedule: Q04DX003 (ip), vehicle: Klucel (hydroxypropylcellulose) (HPC)): 112 % of control

COC(=O)c1cccc(OP(=O)(N(C)C)N(C)C)c1
T/C [3]: 106 % of control
T/C [4]: 114 % of control

COc1ccc(Oc2nc(=O)n3ccccc3n2)cc1
T/C [3]: 93 % of control
T/C [4]: 90 % of control
T/C [5]: 88 % of control

CC1=C2CC[C@H]3[C@@H]4CC[C@H](O)[C@@]4(C)CC[C@@H]3[C@@]2(C)CCC1=O
T/C [6]: 95 % of control
T/C [7]: 95 % of control
T/C [8]: 100 % of control

CCC(=N\NC(=S)NCCN(CC)CC)/C(C)=N/NC(=S)NCCN(CC)CC
T/C (dose: 1.56 mg/kg/injection, schedule: Q01DX009 (ip), vehicle: saline): 116 % of control
T/C (dose: 3.13 mg/kg/injection, schedule: Q01DX009 (ip), vehicle: saline): 105 % of control
T/C (dose: 6.25 mg/kg/injection, schedule: Q01DX009 (ip), vehicle: saline): 106 % of control
T/C (dose: 12.5 mg/kg/injection, schedule: Q01DX009 (ip), vehicle: saline): 109 % of control and 118 % of control

CCNS(=O)(=O)c1ncnc2nc[nH]c12
T/C [4]: 100 % of control
T/C [6]: 104 % of control
T/C [5]: 100 % of control
T/C [7]: 100 % of control
T/C (dose: 400.0 mg/kg/injection, schedule: Q01DX009 (ip), vehicle: saline with Tween-80): 100 % of control
T/C [8]: 100 % of control

CCOC(=O)c1cnc2c(cnn2CC)c1NN=C(C)C
T/C [9]: 122 % of control
T/C [2]: 111 % of control

COc1cccc2c1C(=O)c1c(O)c3c(c(O)c1C2=O)C[C@@](O)(/C(C)=N\NC=O)C[C@@H]3OC1CC(N)C(O)C(C)O1 (stereo not given in full)
T/C (dose: 1.0 mg/kg/injection, schedule: Q01DX009 (ip), vehicle: saline): 96 % of control
T/C (dose: 2.0 mg/kg/injection, schedule: Q01DX009 (ip), vehicle: saline): 107 % of control
T/C (dose: 16.0 mg/kg/injection, schedule: Q01DX009 (ip), vehicle: saline): 180 % of control

O=C(NC(CSC(=O)c1ccccc1)C(=O)O)OCc1ccccc1 (stereo not given)
T/C (dose: 50.0 mg/kg/injection, schedule: Q01DX009 (ip), vehicle: Klucel (hydroxypropylcellulose) (HPC)): 95 % of control
T/C (dose: 100.0 mg/kg/injection, schedule: Q01DX009 (ip), vehicle: Klucel (hydroxypropylcellulose) (HPC)): 95 % of control
T/C (dose: 200.0 mg/kg/injection, schedule: Q01DX009 (ip), vehicle: Klucel (hydroxypropylcellulose) (HPC)): 100 % of control

CCCCN(C)c1ncnc2[nH]ncc12
T/C (dose: 25.0 mg/kg/injection, schedule: Q01DX009 (ip), vehicle: saline): 100 % of control
T/C (dose: 25.0 mg/kg/injection, schedule: Q04DX003 (ip), vehicle: saline): 95 % of control
T/C (dose: 50.0 mg/kg/injection, schedule: Q01DX009 (ip), vehicle: saline): 109 % of control
T/C [9]: 95 % of control
T/C [1]: 91 % of control

C/C=C/C(=O)OC1CC(=O)N(C)c2cc(cc(OC)c2Cl)C/C(C)=C/C=CC(OC)C2(O)CC(OC(=O)N2)C(C)C2OC12C (stereo not given)
T/C (dose: 0.8 micrograms/kg/injection, schedule: Q01DX009 (ip), vehicle: saline + alcohol): 150 % of control
T/C (dose: 1.5 micrograms/kg/injection, schedule: Q01DX009 (ip), vehicle: saline + alcohol): 150 % of control
T/C (dose: 3.1 micrograms/kg/injection, schedule: Q01DX009 (ip), vehicle: saline + alcohol): 150 % of control
T/C (dose: 6.2 micrograms/kg/injection, schedule: Q01DX009 (ip), vehicle: saline + alcohol): 160 % of control
T/C (dose: 12.5 micrograms/kg/injection, schedule: Q01DX009 (ip), vehicle: saline + alcohol): 170 % of control
T/C (dose: 25.0 micrograms/kg/injection, schedule: Q01DX009 (ip), vehicle: saline + alcohol): 173 % of control
T/C (dose: 50.0 micrograms/kg/injection, schedule: Q01DX009 (ip), vehicle: saline + alcohol): 210 % of control
T/C (dose: 100.0 micrograms/kg/injection, schedule: Q01DX009 (ip), vehicle: saline + alcohol): 210 % of control
T/C (dose: 200.0 micrograms/kg/injection, schedule: Q01DX009 (ip), vehicle: saline + alcohol): 210 % of control
